In assay [1] the test system is E. faecalis infection. The assay is described as follows: E. faecalis infected mouse model. Format: in vivo, C57BL/6 J mice. Particulars: oral dose (40 μM), 19 days. As for the experimental part: All animal studies had been reviewed and approved by the Animal Ethical and Welfare Committee of Nanjing University of Chinese Medicine. 8-week-old male C57BL/6 J mice were housed in groups of four mice per cage in a 12/12-h day light cycle with free access to food and water under conditions of controlled humidity (50 ± 5%) and temperature (22 ± 2°C). Mice were adaptively raised for a week before experiments. To explore the effects of GA and NGA on E. faecalis, the mice were randomly divided into four groups including control, E. faecalis, E. faecalis + GA and E. faecalis + NGA. Mice received an oral dose (40 μM) of GA or NGA from 30 min after E. faecalis (1 × 10^10 CFU) treatment for 19 days to sacrifice. The body weight of the mice was monitored daily. Afterwards mice spleens were collected and spleen weight was measured upon being sacrificed.
Spleen tissue sections of mice were fixed in 4% paraformaldehyde, dehydrated in alcohol, embedded in paraffin and then sliced into thin 5 μm sections. The tissues were then stained with hematoxylin & eosin (H&E). The tissue images were observed under an inverted microscope (Vectra 3.0, PerkinElmer, United States).
Retro-orbital blood was collected from the mice in asepsis tubes before dissection. The blood was centrifuged at 3500 g for 20 min to extract serum, which was stored at −20°C awaiting subsequent analyses. TNF-α-levels in serum was measured by ELISA according to the instructions of the manufacturer (eBioscience, United States).
Total RNA was extracted from the spleen of mice, and then the cDNA was synthesized with HiScript® II Q RT SuperMix for qPCR (Vazyme, China). qPCR was performed using the LightCycler®96 (Roche, Swiss). The qPCR primers of TNF-α (Forward: 5’-[…]-3′ and Reverse: 5’-[…]-3′) were designed and synthesized by GENERAY Biotechnology (Shanghai, China). GAPDH was used as the reference gene.

The target of assay [2] is T1, EfaUPPS (L146A) (Enterococcus faecalis, UniProt Q831K9, L152A).
T1 construct: His tag; made in house; host or cells: E. coli BL21(DE3)
T1 sequence (Q831K9 whole entry L152A): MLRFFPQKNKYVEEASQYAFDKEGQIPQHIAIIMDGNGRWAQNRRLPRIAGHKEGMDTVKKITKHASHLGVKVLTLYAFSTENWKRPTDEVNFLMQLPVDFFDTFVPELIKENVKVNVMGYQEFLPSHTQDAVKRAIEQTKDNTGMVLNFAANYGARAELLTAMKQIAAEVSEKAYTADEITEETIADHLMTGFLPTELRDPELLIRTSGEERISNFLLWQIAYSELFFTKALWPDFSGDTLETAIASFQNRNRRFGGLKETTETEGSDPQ
The assay is described as follows: UPPS inhibition assay, EfaUPPS L146A mutant. Format: biochemical. As to conditions: for effect of mutation on inhibitory effect of compound on EfaUPPS enzyme activity: L146A mutant compared with wild-type; for IC50 fold higher than that of the wild-type: L146A mutant vs wild-type (~3 μM). As for the experimental part:
The EfaUPPS site-directed mutagenesis was generated using QuikChange site-directed mutagenesis kit (Agilent) according to the manufacturer’s instructions. The purification of site-directed mutation was using a similar strategy as described above.
The UPPS inhibition assay was carried out by measuring the fluorescence of the reaction mixture in a black 96-well microtiter plate (Corning, United States). […] After the indicated incubation period, the reaction was terminated by the addition of 10 μl of 0.5 M EDTA solution. Transferred 50 μl of the reaction mixture into a new 96-well microtiter plate, and quenched with an equal volume of Master Reaction Mix (Pyrophosphate Assay Kit, Sigma-Aldrich, USA) for 30 min. The UPPS inhibitory activity was performed by calculating the fluorescence percentage through determining the fluorescence absorbance of reaction mixture at 316 and 456 nm. Data of UPPS inhibitory activities were plotted versus compound concentrations on a semi-log scale using GraphPad Prism7. All the results were the means of at least three biological replicates.

Assay [3] addresses T2, EfaUPPS (K47A) (Enterococcus faecalis, UniProt Q831K9, K53A).
T2 construct: His tag; made in house; host or cells: E. coli BL21(DE3)
The assay is described as follows: Microscale thermophoresis binding assay, EfaUPPS K47A. As for the experimental part:
(§1) To characterize the binding affinity between EfaUPPS and GA or NGA, the MST binding assay was performed as previously described ([Lin et al., 2020]). In brief, His-tagged EfaUPPS and site-directed mutated EfaUPPS were labeled with the NT- 647-NHS dye using the Monolith NTTM Protein Labeling Kit RED-NHS (NanoTemper Technologies). Two-fold serially diluted GA or NGA was mixed with 10 nM of labeled EfaUPPS or its derivatives in 10 μl of binding buffer (137 mM NaCl, 2.7 mM KCl, 10 mM Na2HPO4, 1.8 mM KH2PO4, and 0.05% Tween-20, pH 7.8), incubated for 15 min, at room temperature. And then, loaded the mixtures into NT.115 premium coated capillaries (NanoTemper Technologies). MST trace signals were collected from the IR laser on to off for about 20 s, under the 5% LED power and high MST power mode. The change of molecular thermophoresis was monitored by standardized fluorescence value Fnorm, and the binding curve was plotted according to the values of Fnorm. The formed complex affinity was analyzed by MO Affinity Analysis software version 2.3. Apparent dissociation constants (Kd) were calculated using nonlinear fitting assuming one specific binding site with the GraphPad Prism 7 software with the following formula: Y = B^∗Max X/KD + X.
(§2) (^∗ where BMax is the maximum theoretical specific binding; here BMax = 1).
(In general: MST reads how a fluorescent partner responds to local heating, with and without ligand.)

Assay [4] addresses T3, EfaUPPS (Enterococcus faecalis, UniProt Q831K9).
T3 construct: His tag; made in house; host or cells: E. coli BL21(DE3)
The assay is described as follows: Compound/substrate-UPPS binding competition experiment. Format: biochemical. Particulars: 0-20 μM FPP, 1/2/5 μM compound. As for the experimental part:
The compound/substrate-UPPS binding competition experiment was performed as the above descriptions. The difference is that the reaction buffer containing 35 μM IPP, different concentrations of FPP ranged from 0–20 μM, and in the presence of 0/1/2/5 μM GA/NGA, respectively. Data were plotted with competitive inhibition model using GraphPad Prism7.

Assay [5] concerns the target T4, WT EfaUPPS (Enterococcus faecalis, UniProt Q831K9).
T4 construct: His tag; made in house; host or cells: E. coli BL21(DE3)
The assay is described as follows: Microscale thermophoresis binding assay, wild-type EfaUPPS. On the procedure:
as §1, §2

The test system of assay [6] is MRSA. Nature of the assay: MIC, microtiter broth dilution. Particulars: Staphylococcus aureus, MRSA, 18 h. Format: cell-based, Staphylococcus aureus. On the procedure: (§3) Antibacterial activities were performed by examining the minimal inhibitory concentrations (MICs), which was determined by a microtiter broth dilution method as previously described ([Cotsonas King and Wu, 2009]), with minor modifications. Briefly, 96-well plates (Corning) were inoculated with 100 μl of LB broth per well containing 7 × 10^5 CFU/mL bacteria, followed by adding 100 μl of LB broth containing two-fold serial dilutions of the test compounds. […] After 18 h of incubation, the MIC was determined to be the lowest concentration without visible bacterial growth. The results were the averages of at least three biological replicates.
(Broth dilution looks for growth in wells or tubes with falling amounts of substance.)

Assay [7] relates to Staphylococcus aureus ATCC29213. Nature of the assay: MIC, microtiter broth dilution. Format: cell-based. Particulars: Staphylococcus aureus. As for the experimental part: as §3
Assay [8] concerns Enterococcus faecalis ATCC29212. Nature of the assay: MIC, microtiter broth dilution. The assay is classed as cell-based. As to conditions: Enterococcus faecalis. As for the experimental part: as §3
The subject of assay [9] is Listeria monocytogenes ATCC19117. The assay is described as follows: MIC, microtiter broth dilution. The assay is classed as cell-based. As to conditions: Listeria monocytogenes. As for the experimental part:
as §3

Assay [10] has as its system Escherichia coli ATCC25922. Nature of the assay: MIC, microtiter broth dilution. Format: cell-based. Particulars: Escherichia coli. On the procedure: as §3

In brackets after ≈: the same amount, converted by molar mass. Read-outs that look alike come from different tables or passages of the source.

T2 sequence (Q831K9 whole entry K53A): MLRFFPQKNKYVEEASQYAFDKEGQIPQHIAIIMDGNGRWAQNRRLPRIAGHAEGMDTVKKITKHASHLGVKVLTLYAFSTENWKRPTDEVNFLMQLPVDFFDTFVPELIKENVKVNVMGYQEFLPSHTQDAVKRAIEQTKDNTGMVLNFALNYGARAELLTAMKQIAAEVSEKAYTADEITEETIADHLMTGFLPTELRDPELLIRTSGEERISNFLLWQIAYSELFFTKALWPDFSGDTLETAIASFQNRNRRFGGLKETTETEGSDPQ
T4 sequence (Q831K9 whole entry): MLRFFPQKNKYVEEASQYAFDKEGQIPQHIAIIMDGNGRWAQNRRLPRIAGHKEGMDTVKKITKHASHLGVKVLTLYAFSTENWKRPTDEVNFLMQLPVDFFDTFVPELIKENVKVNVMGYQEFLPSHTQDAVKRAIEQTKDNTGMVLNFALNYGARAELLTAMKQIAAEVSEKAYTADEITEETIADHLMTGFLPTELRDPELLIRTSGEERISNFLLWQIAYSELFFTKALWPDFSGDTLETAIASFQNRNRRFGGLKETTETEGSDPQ
T3 sequence (Q831K9 whole entry): as above

One may read the IC50 as the concentration that inhibits the measured activity by half. By Kd is commonly meant the equilibrium constant for the complex coming apart. By MIC is commonly meant the smallest concentration in the dilution series that meets the test's criterion for growth inhibition. As to `CC(C)=CCC[C@]1(C)C=Cc2c(O)c3c(c(CC=C(C)C)c2O1)O[C@]12C(=C[C@@H]4C[C@H]1C(C)(C)O[C@@]2(C/C=C(/C)C(=O)O)C4=O)C3=O` [GA, gambogic acid], the “body weight of E. faecalis infection mice” value in [1] is given as “no observable effect”. Also, the “spleen inflammation (H&E spleen slides)” value in assay [1] is reported as “reduced signs of inflammation”. Also, in assay [1], the “splenomegaly (spleen weight)” value was “significantly relieved splenomegaly”. The half-inhibitory concentration (IC50) in assay [2] is ~30 µM. In addition, the “effect of mutation on inhibitory effect of compound on EfaUPPS enzyme activity” value in assay [2] was “significantly decreased”. In addition, the “IC50 fold higher than that of the wild-type” value in [2] is listed as “about 10 fold”. For the same compound, the Kd turned out to be 4.61 ± 2.62 µM in assay [3] and 29 ± 8.03 µM in assay [5] (MST, WT EfaUPPS, read-out: Kd). Besides, the “Kd fold lower than that of the wild-type” value in [3] (K47A vs wild-type) is recorded as “about 6 fold”. Further, the “competition with FPP for binding to EfaUPPS” value in [4] is given as “compete with FPP”. Also, the MIC is 4 µg/mL (≈ 6.36 µM) in assay [6] (LB broth, read-out: MIC); 2 µg/mL (≈ 3.18 µM) in assay [7] (ATCC29213, LB broth, 18 h, read-out: MIC); 2 µg/mL (≈ 3.18 µM) in assay [8] (ATCC29212, LB broth, 18 h, read-out: MIC); 4 µg/mL (≈ 6.36 µM) in [9] (ATCC19117, LB broth, 18 h, read-out: MIC); > 64 µg/mL in assay [10] (ATCC25922, LB broth, 18 h, read-out: MIC).

Turning to `CC(C)=CCC[C@]1(C)CC(O)c2c(O)c3c(c(CC=C(C)C)c2O1)O[C@]12C(=C[C@@H]4C[C@H]1C(C)(C)O[C@@]2(C/C=C(/C)C(=O)O)C4=O)C3=O` (stereo partly drawn) [NGA, neogambogic acid], in [1], the “TNF-α mRNA in spleen (qPCR)” value is listed as “significant downregulation”, the “body weight of E. faecalis infection mice” value is “no observable effect”, the “spleen inflammation (H&E spleen slides)” value was “reduced signs of inflammation” and the “splenomegaly (spleen weight)” value is recorded as “significantly relieved splenomegaly”. The “TNF-α-levels in serum (ELISA)” value in assay [1] (vs E. faecalis group) was “significantly reduced”. In assay [2], the concentration for half-maximal inhibition (IC50) was ~30 µM, the “effect of mutation on inhibitory effect of compound on EfaUPPS enzyme activity” value was “significantly reduced” and the “IC50 fold higher than that of the wild-type” value is “about 10 fold”. This compound also gave a Kd in [3] of 65.9 ± 25.8 µM. Also, the “Kd fold higher than that of the wild-type” value in assay [3] (K47A vs wild-type) is on record as “about 10 fold”. Moreover, the “competition with FPP for binding to EfaUPPS” value in assay [4] is given as “compete with FPP”. In assay [5], this compound returned a Kd of 5.61 ± 2.16 µM. In addition, the “Kd fold lower than that for GA” value in [5] (WT EfaUPPS, NGA vs GA) is “about 5 fold”. In addition, inhibition of growth in assay [6] (MIC) required 4 µg/mL (≈ 6.18 µM). In assay [7] (ATCC29213, 18 h), this compound displayed a minimal inhibitory concentration (MIC) of 4 µg/mL (≈ 6.18 µM). The same compound gave an MIC in [8] (ATCC29212, 18 h) of 2 µg/mL (≈ 3.09 µM). Besides, inhibition of growth in [9] (ATCC19117, 18 h) (MIC) required 4 µg/mL (≈ 6.18 µM). In assay [10] (ATCC25922, 18 h), the MIC was > 64 µg/mL.
